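Tested at 5 concentrations; 48 h exposure; 96-well plates; endpoints linearly interpolated, else capped at highest concentration. At the GI50, growth is halved.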 Calls of active or inactive are those of the source. No stated cut-off is given here; in the data, active = GI50 up to about 1.1 µM and inactive = higher.
Assays:
Assay in all cases: NCI anticancer screen, dose series, 48 h
MDA-MB-435 = tested on: MDA-MB-435
SK-MEL-28 = tested on: SK-MEL-28
HT-29 = tested on: HT-29
M14 = tested on: M14
SK-OV-3 = tested on: SK-OV-3
SW-620 = tested on: SW-620
786-0 = tested on: 786-0
PC-3 = tested on: PC-3
KM12 = tested on: KM12
HCC 2998 = tested on: HCC 2998
LOX IMVI = tested on: LOX IMVI
K562 = tested on: K562
NCI-H23 = tested on: NCI-H23
HL-60 = tested on: HL-60
BT-549 = tested on: BT-549
SNB-75 = tested on: SNB-75
SR = tested on: SR
UACC-257 = tested on: UACC-257
TK-10 = tested on: TK-10
RPMI-8226 = tested on: RPMI-8226

Compound	GI50 (MDA-MB-435)	GI50 (SK-MEL-28)	GI50 (HT-29)	GI50 (M14)	GI50 (SK-OV-3)	GI50 (SW-620)	GI50 (786-0)	GI50 (PC-3)	GI50 (KM12)	GI50 (HCC 2998)	GI50 (LOX IMVI)	GI50 (K562)	GI50 (NCI-H23)	GI50 (HL-60)	GI50 (BT-549)	GI50 (SNB-75)	GI50 (SR)	GI50 (UACC-257)	GI50 (TK-10)	GI50 (RPMI-8226)
O=C(NN1C(=O)/C(=C/c2ccc(Cl)cc2)N=C1c1ccccc1)c1c(Cl)c(Cl)c(Cl)c(Cl)c1-c1nc2ccccc2[nH]1	2.8 µM (inactive)	20.3 µM (inactive)	27.4 µM (inactive)	17.3 µM (inactive)	< 0.01 µM (active)	20.6 µM (inactive)	18.5 µM (inactive)	20.2 µM (inactive)	4.15 µM (inactive)	8.09 µM (inactive)	8.79 µM (inactive)	4.28 µM (inactive)	13.4 µM (inactive)	18.9 µM (inactive)	13.4 µM (inactive)	12.2 µM (inactive)	3.58 µM (inactive)	–	–	–
COc1ccc2c(c1)CCc1c-2[nH]c2ccc(OC)cc12	> 100 µM (inactive)	> 100 µM (inactive)	7.21 µM (inactive)	> 100 µM (inactive)	> 100 µM (inactive)	> 100 µM (inactive)	> 100 µM (inactive)	> 100 µM (inactive)	> 100 µM (inactive)	> 100 µM (inactive)	> 100 µM (inactive)	> 100 µM (inactive)	> 100 µM (inactive)	–	> 100 µM (inactive)	> 100 µM (inactive)	> 100 µM (inactive)	> 100 µM (inactive)	> 100 µM (inactive)	> 100 µM (inactive)
CC(C)(C)C(=O)C(C(c1ccccc1)N1CCOCC1)N1CCOCC1 (stereo unspecified)	> 100 µM (inactive)	> 100 µM (inactive)	> 100 µM (inactive)	> 100 µM (inactive)	–	> 100 µM (inactive)	> 100 µM (inactive)	> 100 µM (inactive)	> 100 µM (inactive)	> 100 µM (inactive)	> 100 µM (inactive)	> 100 µM (inactive)	> 100 µM (inactive)	–	> 100 µM (inactive)	> 100 µM (inactive)	> 100 µM (inactive)	> 100 µM (inactive)	> 100 µM (inactive)	> 100 µM (inactive)
O=C(NN=C(c1ccccc1)c1ccccc1)/C(O)=C/C(=O)c1ccc(Cl)cc1	69.3 µM (inactive)	–	44.3 µM (inactive)	> 100 µM (inactive)	73.3 µM (inactive)	–	37.3 µM (inactive)	27.1 µM (inactive)	45 µM (inactive)	39.5 µM (inactive)	–	43.5 µM (inactive)	23.2 µM (inactive)	–	38.1 µM (inactive)	33 µM (inactive)	39.2 µM (inactive)	37.3 µM (inactive)	48.5 µM (inactive)	–
S=c1[nH]nc(Cn2c3ccc(Br)cc3c3nc4ccccc4nc32)n1C1CCCCC1	20.3 µM (inactive)	9.44 µM (inactive)	16.1 µM (inactive)	29.8 µM (inactive)	26.5 µM (inactive)	25.3 µM (inactive)	20.7 µM (inactive)	20.4 µM (inactive)	32.7 µM (inactive)	16.1 µM (inactive)	–	25.9 µM (inactive)	13.8 µM (inactive)	–	52.2 µM (inactive)	52.2 µM (inactive)	8.13 µM (inactive)	31.6 µM (inactive)	> 47.8 µM (inactive)	17.7 µM (inactive)
COc1cc(C2c3cc4c(cc3[C@@H](Nc3ccc(F)cc3)C3COC(=O)[C@H]23)OCO4)cc(OC)c1O (stereo partly specified)	4.17 µM (inactive)	7.69 µM (inactive)	3.41 µM (inactive)	2.56 µM (inactive)	3.45 µM (inactive)	1.69 µM (inactive)	1.47 µM (inactive)	1.65 µM (inactive)	3.77 µM (inactive)	3.28 µM (inactive)	0.753 µM (active)	3.87 µM (inactive)	1.3 µM (inactive)	–	2.61 µM (inactive)	1.91 µM (inactive)	0.106 µM (active)	6.05 µM (inactive)	4.88 µM (inactive)	1.1 µM (active)
